Measurements taken from patent US20080207638A1, “Compounds” (priority 2005, published 2008).
Counter-ions that a name gives are not always drawn.

Key:
Rat pharmacokinetics = format: in vivo, male CD Sprague Dawley rats; details: 1 mg/kg i.v., 3 mg/kg oral
Experimental: Compounds were dosed to male CD Sprague Dawley rats by single intravenous or oral administration at a nominal dose level of 1 mgkg^−1 and 3 mgkg^−1 respectively. Compounds were formulated in 5% DMSO/45% PEG200/50% water. An intravenous profile was obtained by taking serial or terminal blood samples at 0.083, 0.25, 0.5, 1, 2, 4, and 7 h post-dose. An oral profile was obtained by taking serial or terminal blood samples at 0.25, 0.5, 1, 2, 4, 7 and 12 h post-dose. Blood samples were taken directly into heparinised tubes. Blood samples were prepared by protein precipitation and subjected to quantitative analysis by LC-MS/MS using compound-specific mass transitions. Drug concentration-time profiles were generated and non-compartmental PK analysis used to generate estimates of half-life, clearance, volume of distribution and oral bioavailability.

Dog pharmacokinetics = format: in vivo, male Beagle dogs; details: 1 mg/kg i.v., 2 mg/kg oral
Experimental: Compounds were dosed to male Beagle dogs by single intravenous or oral administration at a nominal dose level of 1 mgkg^−1 and 2 mgkg^−1 respectively. The study was carried out according to a crossover design such that the same dog was used for both dosing events and the dosing events occurred 1 week apart. Compounds were formulated in 5%DMSO/45%Peg2oO/50%water. An intravenous profile was obtained by taking serial blood samples at 0.083, 0.25, 0.5, 0.75, 1, 2, 4, 6 & 12 h post-dose. An oral profile was obtained by taking serial blood samples at 0.25, 0.5, 0.75, 1, 2, 4, 6, 12 & 24 h post-dose. Blood samples were taken directly into heparinised tubes. Blood samples were prepared by protein precipitation and subjected to quantitative analysis by LC-MS/MS using compound-specific mass transitions. Drug concentration-time profiles were generated and non-compartmental PK analysis used to generate estimates of half-life, clearance, volume of distribution and oral bioavailability.

CNS penetration = format: in vivo, male CD Sprague Dawley rats; details: male, CD Sprague Dawley, iv; rat, 1 mg/kg i.v., brain 5 min post-dose
Experimental: Compounds were dosed intravenously at a nominal dose level of 1 mgkg−1 to male CD Sprague Dawley rats. Compounds were formulated in 5% DMSO/45% PEG200/50% water. Blood samples were taken under terminal anaesthesia with isoflurane at 5 min post-dose and the brains were also removed for assessment of brain penetration. Blood samples were taken directly into heparinised tubes. Blood samples were prepared for analysis using protein precipitation and brain samples were prepared using extraction of drug from brain by homogenisation and subsequent protein precipitation. The concentration of parent drug in blood and brain extracts was determined by quantitative LC-MS/MS analysis using compound-specific mass transitions.

oral bioavailability (Rat pharmacokinetics): approximately 48 % F
oral bioavailability (Dog pharmacokinetics): approximately 100 % F
concentration at 5 min (CNS penetration): ~57.5 ng/g
Structure (SMILES): C[C@@H]1CCCN1CCCOc1ccc(N2CCN(C(=O)c3ccc(F)cc3F)CC2=O)cc1 [Example E1, 4-[(2,4-Difluorophenyl)carbonyl]-1-[4-({3-[(2R)-2-methyl-1-pyrrolidinyl]propyl)oxy)phenyl]-2-piperazinone, formate salt]
